Values quoted from earlier work as cited in patent US4914086A, “Method for treating African human and veterinary trypanosomiases” (priority 1987, dated 1990).
Entries after “also recorded” stand apart in the source; their conditions may differ.

What was measured:
[1] = tested on: Trypanosoma brucei rhodesiense; conditions: bone marrow tissue culture system; cited from earlier work
[2] = tested on: bloodstream trypomastigotes; conditions: in culture; cited from earlier work
mouse L cells [3] = conditions: cited from earlier work
mouse L cells [4] = conditions: cited from earlier work; remark: listed apart in the source
T. cruzi = conditions: previous studies; cited from earlier work
Leishmania spp = conditions: previous studies; cited from earlier work
mammalian cells = conditions: cited from earlier work
VA-13 human cells = conditions: cited from earlier work
T. brucei subsp. = conditions: cited from earlier work
T. congolense = conditions: cited from earlier work
T. vivax = conditions: multiple daily doses; Dube et al.; cited from earlier work

For `O=c1[nH]cnc2c([C@@H]3O[C@H](CO)[C@@H](O)[C@H]3O)c[nH]c12` [9-DINO, 7-beta-D-ribofuranosyl-4-oxo-3H, 5H-pyrrolo (3,2-d) pyrimidine], the activity in words [1] is given as “active at very low concentrations”, the metabolism in words [2] is given as “converted to toxic adenosine nucleotide analogues” and the toxicity in words (mouse L cells [3]) is given as “neither toxic for mouse L cells”. The metabolism in words (mouse L cells [4]) was “nor metabolized to adenosine nucleotide analogues by these cells; also recorded: not metabolized to adenine nucleotide analogs”, the activity in words (T. cruzi) was “more active than allopurinol, thipurinol, and their respective nucleosides” and the activity in words (Leishmania spp) was “more active than allopurinol, thipurinol, and their respective nucleosides”. For the same compound, the “cleavage into ribose and purine analog moieties” value (mammalian cells) was “cannot be cleaved into ribose and purine analog moieties”, the “metabolism to adenine nucleotide analogs in words” value (VA-13 human cells) was “not metabolized to adenine nucleotide analogs” and the metabolism in words (T. brucei subsp.) was “can be aminated by T. brucei subsp. and converted to analogs of ATP”.
For `Nc1ncnc2c1ncn2[C@@H]1O[C@H](C[C@@H](N)CC[C@H](N)C(=O)O)[C@@H](O)[C@H]1O` [Sinefungin, 6,9-Diamino-1-(6-amino-9H-purin-9-yl)-1,5,6,7,8,9-hexadeoxy-beta-D-ribo-decofuranuronic acid], the “total dose to which infection responded” value (T. congolense; 9 injections 2 h apart) is listed as 0.45 mg, the cure in words (T. congolense; multiple daily doses, Dube et al.) is listed as “cured” and the cure in words (T. vivax) is listed as “cured”.
